# Test results from patent US8383129B2, “Employment of rotavirus proteins, derived proteins and peptides for the modulation of tissue permeability” (priority 2003, dated 2013).
# “Also recorded” adds a separate entry of the source.
# Experiments:
# MDCK monolayers [1] = assay: Transepithelial electrical resistance (TER) across confluent MDCK monolayers; settings: for TER of MDCK monolayers treated with synthetic cyclic peptides: 100 or 500 μg/ml, versus control cultures; for TER of epithelial (MDCK) monolayers: confluent monolayers (FIG. 1: after 30 min. of treatment); for TER after withdrawal of the protein from the culture media: monolayers washed and transferred to media without GST-VP8; for dose dependence of the effect upon TER: 0.4, 4 or 10 μg/ml
# Experimental: MDCK cells were cultured as previously described (Gonzalez-Mariscal et al., 1990) and used for experiments between passages 70-90.
# The degree of sealing of tight junctions was evaluated by measuring the transepithelial electrical resistance (TER) across the monolayer. Standard procedures were followed (Gonzalez-Mariscal et al., 1990). Briefly, monolayers grown over Millipore filters were mounted between two Lucite chambers with an exposed area of 0.23 cm2. Current was delivered via Ag—AgCl electrodes placed at 2.0 cm form the monolayer; the voltage deflection elicited was measured with a second set of electrodes placed at 1.0 mm from the membrane. The contribution if the filter and the bathing solution was subtracted, and all values reported correspond exclusively to the monolayer. Each disk was used for a single determination.
# The determination of the TER across an epithelial monolayer was done as described in Example 1.
# male Wistar rats = assay: Induction of diabetes: blood glucose after streptozotocin; assay type: in vivo, rat; settings: 75 mg/kg intraperitoneal, three days after injection, versus mock injection
# Experimental: (§1) A) Generation of Diabetic Rats. • Male Wistar rats (230-250 gr.) were maintained on PicoLab® Rodent Diet 20, sterilized by irradiation and water ad libitum, in the animal house (temperature 22 to 24° C., 50 to 55% humidity). Care and handling of the animals were in accordance to international recommended procedures. • Diabetes mellitus type I was induced with one intraperitoneal shot of streptozotocin (75 mg/Kg weight; Sigma, Cat. No. S0130), diluted in citrate buffer 0.1 M (Sigma, Cat. No. S4641) pH 4.5. Streptozotocin solution was prepared immediately before use and protected from light exposure.
# (§2) B) Determination of Glucose Concentration in Blood. • Using heparinized capillary tubing (Chase Scientific Glass Inc. Cat. No. 2501) a drop of blood was taken from the eye orbital sinus of the rats. Blood glucose concentration was determined using reactive strips (One Touch, LIFESCAN, Johnson & Johnson) and a commercial glucometer (One Touch Basic Plus, LIFESCAN, Johnson & Johnson). Glucose concentration was determined in healthy animals and in those that had received the streptozotocin intraperitoneal shot at least three days before being tested.
# claudin-3 = target: T1, claudin-3 (Canis lupus familiaris, UniProt Q95KM5); assay: Immunolocalization of TJ protein claudin-3 in MDCK monolayers; assay type: cell-based; settings: 4 μg/ml, 1 hr
# T1 construct: endogenous in cells; host or cells: MDCK
# T1 sequence (Q95KM5 1-218): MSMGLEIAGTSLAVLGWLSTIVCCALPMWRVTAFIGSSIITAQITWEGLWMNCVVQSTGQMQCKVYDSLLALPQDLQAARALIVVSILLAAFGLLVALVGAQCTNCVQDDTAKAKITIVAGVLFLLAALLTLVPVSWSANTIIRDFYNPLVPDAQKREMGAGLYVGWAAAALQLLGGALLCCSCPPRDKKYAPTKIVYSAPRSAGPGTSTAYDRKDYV
# Experimental: (§3) MDCK cells were cultured in glass coverslips. Confluent cultures were exposed to 4 μg/ml of GST-VP8 for 1 hr. The cells were then fixed for 30 min with 2% p-formaldehyde in PBS, pH 7.4, and permeabilized for 3 min with 0.2% PBS-TX. Cells were washed five times with PBS and then blocked for 30 minutes with 1% BSA Ig free (Research Organics 1331-a). The monolayers were incubated overnight at 4° C. with rabbit polyclonal antibodies against ZO-1 (Zymed 61-7300, dilution 1:100), Claudin 3 (Zymed 34-1700, dilution 3 μgr/ml) or occludin (Zymed 71-1500, dilution 1:100 in 1% Ig-free BSA). After being washed five times with PBS, the coverslips were incubated for one hour at room temperature with a secondary antibody (FITC-conjugated goat anti-rabbit, catalogue no. 65-6111, diluted 1:100, Zymed). The monolayers were washed five times in PBS before being mounted with the antifade reagent Vectashield (Vector Laboratories Inc.). The fluorescence of the monolayers was examined using a confocal microscope (MRC600, Bio-Rad) with a Krypton-argon laser.
# ZO-1 = assay: Immunolocalization of TJ protein ZO-1 in MDCK monolayers; assay type: cell-based; settings: 4 μg/ml, 1 hr
# Experimental: as §3
# MDCK monolayers [2] = assay: Calcium-switch assay for TJ assembly (development of TER); assay type: cell-based; settings: 4 μg/ml
# Experimental: The ability of VP8 to inhibit the development of TJ was assessed utilizing the Ca^2+ switch assay (Gonzalez-Mariscal et al., 1990). Cells were plated at confluency on Millipore filters and incubated for 1 hour in DMEM (normal calcium media, NC; 1.8 mM Ca^2+). Then, the resulting monolayers were washed three times with PBS without Ca^2+ and transferred to minimal essential medium without Ca^2+ (low calcium media, LC; 1-5 μM Ca^2+). Twenty hours later experimental monolayers were transferred to LC media containing 4 μg/ml of GST-VP8 or of GST-VP5 dissolved in LC media, while control monolayers were again incubated in LC media. After 30 minutes, the experimental monolayers were transferred to NC media containing 4 μg/ml of GST-VP8 or of GST-VP5. Control monolayers received instead NC media. The TER was measured at different time points after the monolayers were transferred to NC media.
# occludin = target: T2, occludin (Canis lupus familiaris, UniProt Q28269); assay: Immunolocalization of TJ protein occludin in MDCK monolayers; assay type: cell-based; settings: 4 μg/ml, 1 hr
# T2 construct: endogenous in cells; host or cells: MDCK
# T2 sequence (Q28269 1-521): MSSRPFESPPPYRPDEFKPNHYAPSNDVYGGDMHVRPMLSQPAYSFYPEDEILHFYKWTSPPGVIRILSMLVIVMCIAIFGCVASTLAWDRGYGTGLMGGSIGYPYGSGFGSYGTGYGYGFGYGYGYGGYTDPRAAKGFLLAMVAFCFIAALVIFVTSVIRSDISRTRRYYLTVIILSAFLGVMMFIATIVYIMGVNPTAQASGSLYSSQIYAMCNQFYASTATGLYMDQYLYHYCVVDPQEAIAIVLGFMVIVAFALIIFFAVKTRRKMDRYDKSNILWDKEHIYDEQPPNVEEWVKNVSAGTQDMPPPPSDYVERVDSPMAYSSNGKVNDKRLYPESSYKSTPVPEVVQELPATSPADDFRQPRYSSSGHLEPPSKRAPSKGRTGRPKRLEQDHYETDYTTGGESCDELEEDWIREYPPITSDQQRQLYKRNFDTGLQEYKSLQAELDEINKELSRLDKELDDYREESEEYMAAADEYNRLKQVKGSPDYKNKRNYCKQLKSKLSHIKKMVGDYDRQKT
# Experimental: as §3
# [3] = test system: pancreatic cancer and gastrointestinal tumors; settings: cited from earlier work
# TJ of MDCK monolayers = assay: Freeze-fracture analysis of TJ strands in MDCK monolayers; assay type: cell-based; settings: 4 μg/ml, 1 hour
# Experimental: Confluent monolayers of MDCK cells were incubated for 1 hour with 4 μg/ml of GST-VP8 dissolved in DMEM, while control monolayers remained in DMEM. Freeze-fracture replicas were obtained from monolayers fixed with 2.5% glutaraldehyde for 30 minutes, and gradually infiltrated with glycerol up to a 20% concentration, in which they were left for 1 hour. The monolayers were then detached from the substrate and frozen in liquid nitrogen. Freeze fracture was carried out at −120° C., and 2×10^−6 mm Hg using a Balzers apparatus (BAF400T). After evaporation of platinum and carbon, the organic material was digested for 1 hour in chromic mixture. Replicas were extensively washed in distilled water and mounted in Formvar coated grids. The observations were done in an electron microscope JEOL 200EX.
# To assess modifications in the pattern of TJ strands, we counted the number of strands intercepting lines drawn perpendicular to the main axis of the junction, every 48 nm, as well as the distance between the upper and lowermost strand. 59 and 54 μm of TJ networks were analysed respectively for control and VP8 treated monolayers.
# As has been previously reported (Gonzalez-Mariscal et al., 1985) the amount of junction is defined by the following function:
# Where ni is the number of strands in a segment of TJ, and % is the percentage in which that number of strands is present in the sample.
# Total junctional width is defined as: […]
# Where ni is the distance between the upper and lowermost filament in TJ segment, and %i is the percentage in which that width is present in the sample.
# [4] = test system: rats with streptozotocin induced diabetes; assay: Blood glucose after insulin administration to diabetic rats; assay type: in vivo, rat
# Experimental: as §1, §2
# C) Administration of Insulin to Diabetic Rats. • In order to study the changes in glucose concentration generated by the administration of insulin, the first blood sample was taken from diabetic animals that had fasted overnight. Immediately after, the animals received their food (Lab Diet 5053), and 30 minutes later they were treated according to the following protocols: 1) Human insulin of intermediate action (3-6 IU/rat; Humulin® N, HI-310, Lilly) was parenterally administered. 2) Human insulin of intermediate action (15-30 IU/rat; Humulin® N, HI-310, Lilly) was given orally through an esophagic rat cannula (Fine Science Tools; Cat. No. 18061-75), in a solution of 400 μl of NaHCO3 (1.5 g/100 ml, pH 8.3-8.4), to neutralize gastric acidity. 3) Employing an esophagic rat cannula, 100 μg of GST-VP8 and human insulin of intermediate action (15-30 IU/rat; Humulin® N, HI-310, Lilly) were administered orally in a solution of 400 μl NaHCO3 (1.5 g/100 ml, pH 8.3-8.4). 4) 100 μg of GST-VP8 were administered orally through an esophagic rat cannula. The level of blood glucose was determined at different times after the start of each of the above described procedures.
compound,measurement,setting,value
144VVKT147 (Rhesus Monkey Rotavirus) [SEQ. ID. No. 4],TER of MDCK monolayers treated with synthetic cyclic peptides,MDCK monolayers [1],no effect; also recorded: TER similar to that of control cultures
174IYTY177 (Rhesus Monkey Rotavirus) [SEQ. ID. No. 6],TER of MDCK monolayers treated with synthetic cyclic peptides,MDCK monolayers [1],no effect; also recorded: TER similar to that of control cultures
183NVTT186 (Rhesus Monkey Rotavirus) [SEQ. ID. No. 7],TER of MDCK monolayers treated with synthetic cyclic peptides,MDCK monolayers [1],significantly reduces the TER; also recorded: significantly lower TER
CN(N=O)C(=O)N[C@H]1C(O)O[C@H](CO)[C@@H](O)[C@@H]1O (mixture of isomers) [streptozotocin],concentration of blood glucose,male Wistar rats,significantly increased the level of glucose in the blood
same,concentration of blood glucose,male Wistar rats; listed as Streptozotocin,significantly increases the concentration of blood glucose
"GST-VP8: RRV VP8 fragment (VP4 gene nucleotides 1 to 750) cloned in pGEX-4T-1, fusion protein",distribution of claudin-3 (immunofluorescence),claudin-3,large areas almost devoid of lateral staining; also recorded: cell border staining becomes barely detectable in large areas of the monolayer
same,TER of epithelial (MDCK) monolayers,MDCK monolayers [1]; 4 μg/ml,significant decrease in TER
same,TER of epithelial (MDCK) monolayers,"MDCK monolayers [1]; 4 μg/ml, listed as VP8-GST",significantly reduces the TER
same,TER after withdrawal of the protein from the culture media,MDCK monolayers [1]; 4 μg/ml,recover their TER
same,TER after withdrawal of the protein from the culture media,"MDCK monolayers [1]; 4 μg/ml, listed as GST-VPB",the TER of the monolayers is restored
same,dose dependence of the effect upon TER,MDCK monolayers [1],dose-dependent decrease in TER
same,distribution of ZO-1 (immunofluorescence),ZO-1,strong immuno reactivity in the cytoplasm; also recorded: strong immunoreactivity in the cytoplasm
same,development of TER / epithelial paracellular barrier after transfer from low to normal calcium media,MDCK monolayers [2],delays the development of the epithelial paracellular barrier
same,distribution of occludin (immunofluorescence),occludin,broad and diffuse stain at the cell periphery; also recorded: diffuse and wide label at the cellular boundaries
TGFβ,tumor growth,[3],significant reduction of tumor growth
VP8: polypeptide derived from rotavirus protein VP4; used in the experiments as GST or His fusion protein,TJ freeze fracture pattern,TJ of MDCK monolayers,induces the appearance of loose ends oriented perpendicular to the network of TJ fibrils
same,distribution of the number of TJ strands,TJ of MDCK monolayers; versus control monolayers,no change
same,total amount of junction,TJ of MDCK monolayers; versus control monolayers,no change
same,Number of loose ends/linear amount of junction in μm,TJ of MDCK monolayers; control monolayers 0.17,0.32
same,TER of epithelial (MDCK) monolayers,MDCK monolayers [1]; 4 μg/ml,diminishes the TER
same,reversibility with time of the effect upon TER,"MDCK monolayers [1]; 4 μg/ml, protein kept in media",reversible with time; also recorded: in a reversible manner
same,dose dependence of the effect upon TER,MDCK monolayers [1],dose dependent
same,"blood glucose concentration, insulin administered orally together with VP8","[4]; VP8 100 μg and insulin 30 IU, oral",the blood glucose concentration diminishes; also recorded: diminishes significantly
same,"blood glucose concentration, VP8 administered orally alone","[4]; VP8 100 μg, oral, no insulin",Only with the latter treatment the blood glucose concentration diminished
same,development of TER / epithelial paracellular barrier after transfer from low to normal calcium media,MDCK monolayers [2],a clear inhibition in the development of TER
"insulin: Human insulin of intermediate action (Humulin® N, HI-310, Lilly) [reference compound]","blood glucose concentration, insulin administered orally alone","[4]; 30 IU, oral",the concentration of glucose remains high; also recorded: does not diminish the blood glucose concentration
same,"blood glucose concentration, insulin administered parenterally","[4]; Humulin, intermediate action, 6 IU, parenteral",decreases the blood glucose concentration
